Values joined by “and” are separate entries in the source; they are usually repeats but may differ in a detail not shown here. Identical values can stand only once.
Test system: 598228-144-R-J1-PDC complex spheroid viability
Test: Anticancer human tumor 598228-144-R-J1-PDC patient-derived serous endometrial adenocarcinoma cell line growth inhibition [GQUAD]
Conditions: for viability, T/C: stronger effect = lower value; active means viability on the fitted dose curve at most 10% of control; inactive means the rest
Description: DNA G-quadruplex Stabilizer Agents in Combinations in Complex Spheroids
A high-throughput screen of multi-cell type tumor spheroids was designed to identify active combinations of DNA G-quadruplex stabilizer agents and targeted small molecules. Complex spheroids include a stromal component modeled by human endothelial cells (HUVEC) and fibroblasts modeled by human mesenchymal stem cells (MSCs). The concentration ranges selected for each drug and investigational agent were based upon clinically achievable concentrations if the clinical Cmax of the agent was known.
Compounds. The drugs and investigational agents: pidnarulex (CX-5461; NSC782164), APTO-253 (NSC789042), BRACO-19 (NSC847499), peposertib (NSC802822), ceralasertib (NSC780249), elimusertib (NSC800525), camonsertib (NSC841442), AZD-1390 (NSC803789), olaparib (NSC753686), talazoparib (NSC767125), ART-558 (NSC835418), sotorasib (NSC818433), MRTX-1133 (NSC836407), SN-38 (NSC673596), topotecan (NSC609699), etoposide (NSC141540), doxorubicin (NSC123127), gemcitabine (NSC613327), 5-fluorouracil (NSC19893), paclitaxel (NSC125973), vemurafenib (NSC761431), panobinostat (NSC761190), R-306465 (JNJ-16241199; NSC773264), adavosertib (NSC754352), TP-3654 (NSC805149), carboplatin (NSC241240), KSQ-4279 (NSC840948), and staurosporine (NSC755774) were obtained from the National Cancer Institute (NCI) Developmental Therapeutics Program Chemical Repository (34). The FDA-approved anticancer drug set is available from the NCI Developmental Therapeutics Program. […] The stock solutions were prepared in dimethyl sulfoxide (DMSO, Sigma-Aldrich, St. Louis, MO, cat. D2650) at 800-fold the tested concentration and stored at -70 degrees C prior to their use. All drugs and investigational agents were tested over a range starting from a high concentration at or near the clinical Cmax and decreasing in half-log increments. If the clinical Cmax for an agent had not been determined, the highest concentration tested was 10 microM.
2.3 Cell Culture. All cells were maintained in an incubator at 37 degrees C and 5% CO2 with 95% humidity. The PDC lines were cultured according to standard operating procedures established by the NCI PDMR. All PDCs were thawed and cultured in Matrigel-coated flasks prepared with a working solution of 1X Ham's F-12 nutrient mix, without supplementation (Invitrogen, cat. 11765054), 100 U/mL penicillin-streptomycin (Invitrogen, cat. 15140122), and 2.5% Matrigel (Corning Inc., cat. 354248) for the first three passages. The 857933-349-R-J2-PDC line was cultured in 6C/Colon 1B media, which includes advanced DMEM/F-12 (Thermo Fisher Scientific, cat. 12634028), 10 mM HEPES (Thermo Fisher Scientific, cat. 15630080), 1X GlutaMAX supplement (Thermo Fisher Scientific, cat. 35050061), 0.1 mg/mL primocin (InvivoGen, cat. ant-pm-2), 10% defined fetal bovine serum, heat inactivated (HyClone Laboratories Inc., cat. SH30070.03HI), 50% L-WRN conditioned media (ATCC, cat. CRL-3276), 1.25 mM N-Acetyl-L-cysteine (Sigma-Aldrich, cat. A9165), 10 mM nicotinamide (Sigma-Aldrich, cat. N0636), 1X B-27 supplement (Thermo Fisher Scientific, cat. 17504044), 1X N-2 supplement (Thermo Fisher Scientific, cat. 17502048), 10 microM Y-27632 dihydrochloride (Tocris Bioscience, cat. 1254), and 50 ng/mL human EGF recombinant protein (Thermo Fisher Scientific, cat. PHG0311). The 485176-168-R4-J1-PDC line was cultured in Panc media, which includes all 6C/Colon 1B media components plus 100 ng/mL human FGF-10 (Thermo Fisher Scientific, cat. 100-26), 500 nM SB-431542 (Selleckchem, cat. S1067), and gastrin (Tocris, cat. 3006).
[…]

[1] = curve of first compound, second compound 0.0316 µM
[2] = curve of first compound, second compound 0.1 µM
[3] = curve of first compound, second compound 0.316 µM
[4] = curve of first compound, second compound 1 µM
[5] = curve of first compound, second compound 3.16 µM
[6] = curve of first compound, second compound 10 µM
[7] = second compound 0.0316 µM, first compound 0.0316 µM
[8] = second compound 0.0316 µM, first compound 0.316 µM
[9] = second compound 0.1 µM, first compound 0.0316 µM
[10] = second compound 0.1 µM, first compound 0.316 µM
[11] = second compound 0.316 µM, first compound 0.0316 µM
[12] = second compound 0.316 µM, first compound 0.316 µM
[13] = second compound 1 µM, first compound 0.0316 µM
[14] = second compound 1 µM, first compound 0.316 µM
[15] = second compound 3.16 µM, first compound 0.0316 µM
[16] = second compound 3.16 µM, first compound 0.316 µM
[17] = second compound 10 µM, first compound 0.0316 µM
[18] = second compound 10 µM, first compound 0.316 µM
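Further: spheroids exposed to the agents for one week before reading.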
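Wherever viability, T/C is given: percent of vehicle DMSO control viability so 100% = untreated growth.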

Nc1ccn(C2OC(CO)C(O)C2(F)F)c(=O)n1 (stereo not given) + CN(C)c1ccc(Nc2c3ccc(NC(=O)CCN4CCCC4)cc3nc3cc(NC(=O)CCN4CCCC4)ccc23)cc1
91.7 nM: IC50 [5]
75.5 nM: IC50 [4]
inactive: viability, T/C [7] 49.8% | viability, T/C (second compound 0.0316 µM, first compound 0.1 µM) 42.5% | viability, T/C [8] 39.4% | viability, T/C (second compound 0.0316 µM, first compound 1 µM) 36.3% | viability, T/C (second compound 0.0316 µM, first compound 3.16 µM) 39.8% | viability, T/C (second compound 0.0316 µM, first compound 10 µM) 37.5% | viability, T/C [9] 52.4% | viability, T/C (second compound 0.1 µM, first compound 0.1 µM) 41.9% | viability, T/C [10] 38.6% | viability, T/C (second compound 0.1 µM, first compound 1 µM) 43.2% | viability, T/C (second compound 0.1 µM, first compound 3.16 µM) 57.3% | viability, T/C (second compound 0.1 µM, first compound 10 µM) 49.5% | viability, T/C [11] 49.3% | viability, T/C (second compound 0.316 µM, first compound 0.1 µM) 51.6% | viability, T/C [12] 43.3% | viability, T/C (second compound 0.316 µM, first compound 1 µM) 43.2% | viability, T/C (second compound 0.316 µM, first compound 3.16 µM) 45.8% | viability, T/C (second compound 0.316 µM, first compound 10 µM) 43.6% | viability, T/C [13] 60.8% | viability, T/C (second compound 1 µM, first compound 0.1 µM) 51.3% | viability, T/C [14] 35.4% | viability, T/C (second compound 1 µM, first compound 1 µM) 33.1% | viability, T/C (second compound 1 µM, first compound 3.16 µM) 41.5% | viability, T/C (second compound 1 µM, first compound 10 µM) 43.4% | viability, T/C [15] 58.8% | viability, T/C (second compound 3.16 µM, first compound 0.1 µM) 45.5% | viability, T/C [16] 49.7% | viability, T/C (second compound 3.16 µM, first compound 1 µM) 37.5% | viability, T/C (second compound 3.16 µM, first compound 3.16 µM) 45.6% | viability, T/C (second compound 3.16 µM, first compound 10 µM) 36.4% | viability, T/C [17] 44.1% | viability, T/C (second compound 10 µM, first compound 0.1 µM) 28.5% | viability, T/C [18] 29.6% | viability, T/C (second compound 10 µM, first compound 1 µM) 26.2% | viability, T/C (second compound 10 µM, first compound 3.16 µM) 24% | viability, T/C (second compound 10 µM, first compound 10 µM) 26.9%
38.9 nM: IC50 [3]
< 31.6 nM: IC50 [1] | IC50 [2] | IC50 [6]

COc1ncnc(C2CC2)c1-c1ncc2cnn(Cc3ccc(-c4nc(C(F)(F)F)cn4C(C)C)cc3)c2n1
> 10000 nM: IC50 (curve of compound)
inactive: viability, T/C (compound 0.0316 µM) 112% and 120% and 109% | viability, T/C (compound 0.1 µM) 99.5% and 93.3% and 79.8% | viability, T/C (compound 0.316 µM) 107% and 103% and 102% | viability, T/C (compound 1 µM) 106% and 104% and 102% | viability, T/C (compound 3.16 µM) 97.8% and 112% and 113% | viability, T/C (compound 10 µM) 105% and 117% and 89%

CC[C@@]1(O)C(=O)OCc2c1cc1n(c2=O)Cc2cc3c(CN(C)C)c(O)ccc3nc2-1 + Cc1[nH]c2ccc(F)cc2c1-c1nc2c3cccnc3c3ncccc3c2[nH]1
< 0.999 nM: IC50 [5]
inactive: viability, T/C (second compound 0.0316 µM, first compound 0.000999 µM) 106% | viability, T/C (second compound 0.0316 µM, first compound 0.00316 µM) 105% | viability, T/C (second compound 0.0316 µM, first compound 0.00999 µM) 93.5% | viability, T/C [7] 90.7% | viability, T/C (second compound 0.0316 µM, first compound 0.0999 µM) 63.1% | viability, T/C [8] 71.5% | viability, T/C (second compound 0.1 µM, first compound 0.000999 µM) 104% | viability, T/C (second compound 0.1 µM, first compound 0.00316 µM) 95.4% | viability, T/C (second compound 0.1 µM, first compound 0.00999 µM) 84.4% | viability, T/C [9] 88.7% | viability, T/C (second compound 0.1 µM, first compound 0.0999 µM) 58% | viability, T/C [10] 62.3% | viability, T/C (second compound 0.316 µM, first compound 0.000999 µM) 86.8% | viability, T/C (second compound 0.316 µM, first compound 0.00316 µM) 83.7% | viability, T/C (second compound 0.316 µM, first compound 0.00999 µM) 61.9% | viability, T/C [11] 64.6% | viability, T/C (second compound 0.316 µM, first compound 0.0999 µM) 75% | viability, T/C [12] 52.3% | viability, T/C (second compound 1 µM, first compound 0.000999 µM) 64.6% | viability, T/C (second compound 1 µM, first compound 0.00316 µM) 76.8% | viability, T/C (second compound 1 µM, first compound 0.00999 µM) 59.3% | viability, T/C [13] 44.7% | viability, T/C (second compound 1 µM, first compound 0.0999 µM) 53.4% | viability, T/C [14] 41.2% | viability, T/C (second compound 3.16 µM, first compound 0.000999 µM) 39.1% | viability, T/C (second compound 3.16 µM, first compound 0.00316 µM) 57.1% | viability, T/C (second compound 3.16 µM, first compound 0.00999 µM) 39.9% | viability, T/C [15] 35.7% | viability, T/C (second compound 3.16 µM, first compound 0.0999 µM) 33.6% | viability, T/C [16] 31.4% | viability, T/C (second compound 10 µM, first compound 0.000999 µM) 71.6% | viability, T/C (second compound 10 µM, first compound 0.00316 µM) 58.9% | viability, T/C (second compound 10 µM, first compound 0.00999 µM) 63.3% | viability, T/C [17] 41.5% | viability, T/C (second compound 10 µM, first compound 0.0999 µM) 50.1% | viability, T/C [18] 34.7%
22.9 nM: IC50 [4]
31 nM: IC50 [6]
> 316 nM: IC50 [1] | IC50 [2] | IC50 [3]

CC[C@@]1(O)C(=O)OCc2c1cc1n(c2=O)Cc2cc3c(CN(C)C)c(O)ccc3nc2-1
> 316 nM and 305 nM: IC50 (curve of compound)
inactive: viability, T/C (compound 0.000999 µM) 116% and 95.5% and 102% | viability, T/C (compound 0.00316 µM) 96.2% and 89.7% and 95.8% | viability, T/C (compound 0.00999 µM) 128% and 70.9% and 96.4% | viability, T/C (compound 0.0316 µM) 94.6% and 72% and 86.3% | viability, T/C (compound 0.0999 µM) 68.6% and 55% and 64.9% | viability, T/C (compound 0.316 µM) 68.7% and 50.2% and 51.1%

CC1COCCN1c1cc(-c2ccnn2C)c2ccnc(-c3ccn[nH]3)c2n1 (stereo not given)
inactive: viability, T/C (compound 0.0316 µM) 76% and 72.5% and 81.6% | viability, T/C (compound 0.1 µM) 52.9% and 44.2% and 42.1% | viability, T/C (compound 0.316 µM) 37.5% and 47.8% and 36.9% | viability, T/C (compound 1 µM) 43.9% and 35.5% and 42.2% | viability, T/C (compound 3.16 µM) 50% and 39.5% and 40.7% | viability, T/C (compound 10 µM) 39.6% and 33.4% and 38.9%
140 nM and 91.6 nM and 79 nM: IC50 (curve of compound)

Cc1cnc(CNC(=O)c2c(=O)c3ccc(N4CCCN(C)CC4)nc3n3c2sc2ccccc23)cn1
inactive: viability, T/C (compound 0.1 µM) 73.5% [middle of 12 runs] | viability, T/C (compound 1 µM) 65.9% [middle of 12 runs] | viability, T/C (compound 3.16 µM) 56.4% [middle of 12 runs]

CC(=O)O[C@H]1C(=O)[C@@]2(C)[C@H]([C@H](OC(=O)c3ccccc3)[C@]3(O)C[C@H](OC(=O)[C@H](O)[C@@H](NC(=O)c4ccccc4)c4ccccc4)C(C)=C1C3(C)C)[C@]1(OC(C)=O)CO[C@@H]1C[C@@H]2O
80.4 nM and < 31.6 nM and 50.4 nM: IC50 (curve of compound)
inactive: viability, T/C (compound 0.0316 µM) 57.9% and 47.5% and 53% | viability, T/C (compound 0.1 µM) 41.1% and 46.1% and 48.6% | viability, T/C (compound 0.316 µM) 52.3% and 37.7% and 45% | viability, T/C (compound 1 µM) 42.3% and 36.8% and 38.9% | viability, T/C (compound 3.16 µM) 47.5% (2×) and 40.5% | viability, T/C (compound 10 µM) 49.1% and 43% and 39.1%

Reference: PubChem BioAssay AID2060506 (Molecular Pharmacology Branch, DTP, NCI, 2025)
